The values below come from patent US10370412B2, “Beta-hairpin peptidomimetics” (Polyphor AG, priority 2013, dated 2019).

The test system of this data set is human red blood cells (hRBC). It counts as cell-based. Conditions: red cells of human, 1 h. As to the method:
The peptides were tested for their hemolytic activity against human red blood cells (hRBC). Fresh hRBC were washed three times with phosphate buffered saline (PBS) and centrifuged for 10 min at 2000×g. Compounds (100 μg/ml) were incubated with 20% hRBC (v/v) for 1 h at 37° C. and shaking at 300 rpm. The final erythrocyte concentration was approximately 0.9×10^9 cells/ml. A value of 0% and 100% cell lyses, respectively, was determined by incubation of hRBC in the presence of PBS containing 0.001% acetic acid and 2.5% Triton X-100 in H2O, respectively. The samples were centrifuged, the supernatants were 8-fold diluted in PBS buffer and the optical densities (OD) were measured at 540 nm. The 100% lyses value (OD540H2O) gave an OD540 of approximately 0.5-1.0. Percent hemolysis was calculated as follows: (OD540peptide/OD540H2O)×100%.

SMILES strings stand for the structures. Where a SMILES comes first, the peptide text is derived from it. [ ]: non-standard residue; d: D form. Pro(3S-OH) = O=C(O)[C@H]1NCC[C@@H]1O; Cha = N[C@@H](CC1CCCCC1)C(=O)O; aThr = C[C@H](O)[C@H](N)C(=O)O; Chg = N[C@H](C(=O)O)C1CCCCC1; Tle = CC(C)(C)[C@H](N)C(=O)O; dDab = NCC[C@@H](N)C(=O)O; Orn = NCCC[C@H](N)C(=O)O; Api = NC1(C(=O)O)CCNCC1; Dab = NCC[C@H](N)C(=O)O; Nva = CCC[C@H](N)C(=O)O

For the compound `CC(C)C[C@@H]1NC(=O)[C@@H]2CCCN2C(=O)[C@H]2CCCN2C(=O)[C@H]([C@H](C)O)NC(=O)[C@H](C)NC(=O)[C@H](C(C)(C)C)NC(=O)[C@H](CCN)NC(=O)[C@H](Cc2c[nH]c3ccccc23)NC(=O)[C@H](CCN)NC(=O)[C@@H](CCN)NC(=O)[C@H](CCCN)NC(=O)[C@H](CCN)NC(=O)[C@H](CC2CCCCC2)NC(=O)[C@H](Cc2c[nH]cn2)NC1=O` [Ex. 17, cyclo(-Leu-His-Cha-Dab-Orn-^DDab-Dab-Trp-Dab-tBuGly-Ala-alloThr-^DPro-Pro-)] (cyclo(LH[Cha][Dab][Orn][dDab][Dab]W[Dab][Tle]A[aThr][dP]P)), the “Hemolysis at 100 μg/ml” value is recorded as 5%.

With `CC(C)[C@@H]1NC(=O)[C@H](C(C)(C)C)NC(=O)[C@H](CCN)NC(=O)[C@H](Cc2c[nH]c3ccccc23)NC(=O)[C@H](CCN)NC(=O)[C@@H](CCN)NC(=O)[C@H](CCCN)NC(=O)[C@H](CCN)NC(=O)[C@H](CC2CCCCC2)NC(=O)[C@H](Cc2c[nH]cn2)NC(=O)[C@H](Cc2c[nH]c3ccccc23)NC(=O)[C@@H]2CCCN2C(=O)[C@H]2CCCN2C(=O)[C@H](CO)NC1=O` [compound 4, cyclo(-Trp-His-Cha-Dab-Orn-^DDab-Dab-Trp-Dab-tBuGly-Val-Ser-^DPro-Pro-)] (cyclo(WH[Cha][Dab][Orn][dDab][Dab]W[Dab][Tle]VS[dP]P)), the “Hemolysis at 100 μg/ml” value is 5%.

With `CCC[C@@H]1NC(=O)[C@@H]2CCCN2C(=O)[C@H]2CCCN2C(=O)[C@H](CO)NC(=O)[C@H](C)NC(=O)[C@H](C(C)(C)C)NC(=O)[C@H](CCN)NC(=O)[C@H](Cc2c[nH]c3ccccc23)NC(=O)[C@H](CCN)NC(=O)[C@@H](CCN)NC(=O)[C@H](CCCN)NC(=O)[C@H](CCN)NC(=O)[C@H](Cc2ccc(O)cc2)NC(=O)[C@H](Cc2c[nH]cn2)NC1=O` [compound 8, cyclo(-Nva-His-Tyr-Dab-Orn-^DDab-Dab-Trp-Dab-tBuGly-Ala-Ser-^DPro-Pro-)] (cyclo([Nva]HY[Dab][Orn][dDab][Dab]W[Dab][Tle]AS[dP]P)), the “Hemolysis at 100 μg/ml” value amounted to 1%.

For `CC(C)C[C@@H]1NC(=O)[C@@H]2CCCN2C(=O)[C@H]2CCCN2C(=O)[C@H](CO)NC(=O)[C@H](Cc2ccc(O)cc2)NC(=O)[C@H](C(C)(C)C)NC(=O)[C@H](CCN)NC(=O)[C@H](Cc2c[nH]c3ccccc23)NC(=O)[C@H](CCN)NC(=O)[C@@H](CCN)NC(=O)[C@H](CCCN)NC(=O)[C@H](CCN)NC(=O)[C@H](Cc2ccc(O)cc2)NC(=O)[C@H](Cc2ccc(O)cc2)NC1=O` [compound 38, cyclo(-Leu-Tyr-Tyr-Dab-Orn-^DDab-Dab-Trp-Dab-tBuGly-Tyr-Ser-^DPro-Pro-)] (cyclo(LYY[Dab][Orn][dDab][Dab]W[Dab][Tle]YS[dP]P)), the “Hemolysis at 100 μg/ml” value turned out to be 0%.

Consider `CC[C@H](C)[C@@H]1NC(=O)[C@H](CCN)NC(=O)[C@H](Cc2c[nH]c3ccccc23)NC(=O)[C@H](CCN)NC(=O)[C@@H](CCN)NC(=O)[C@H](CCCN)NC(=O)[C@H](CCN)NC(=O)[C@H](Cc2ccc(O)cc2)NC(=O)[C@H](Cc2c[nH]cn2)NC(=O)[C@H]([C@@H](C)CC)NC(=O)[C@@H]2CCCN2C(=O)[C@H]2CCCN2C(=O)[C@H](CO)NC(=O)[C@H](C)NC1=O` [compound 21, cyclo(-Ile-His-Tyr-Dab-Orn-^DDab-Dab-Trp-Dab-Ile-Ala-Ser-^DPro-Pro-)] (cyclo(IHY[Dab][Orn][dDab][Dab]W[Dab]IAS[dP]P)), for which the “Hemolysis at 100 μg/ml” value amounted to 1%.

In the case of `CC(C)C[C@@H]1NC(=O)[C@@H]2CCCN2C(=O)[C@H]2CCCN2C(=O)[C@H](CO)NC(=O)[C@H](CO)NC(=O)[C@H](C(C)(C)C)NC(=O)[C@H](CCN)NC(=O)[C@H](Cc2c[nH]c3ccccc23)NC(=O)[C@H](CCN)NC(=O)[C@@H](CCN)NC(=O)[C@H](CCCN)NC(=O)[C@H](CCN)NC(=O)[C@H](Cc2ccc(O)cc2)NC(=O)[C@H](Cc2c[nH]cn2)NC1=O` [compound 30, cyclo(-Leu-His-Tyr-Dab-Orn-^DDab-Dab-Trp-Dab-tBuGly-Ser-Ser-^DPro-Pro-)] (cyclo(LHY[Dab][Orn][dDab][Dab]W[Dab][Tle]SS[dP]P)), the “Hemolysis at 100 μg/ml” value was determined as 1%.

Take `CCC[C@@H]1NC(=O)[C@H](CCN)NC(=O)[C@H](Cc2c[nH]c3ccccc23)NC(=O)[C@H](CCN)NC(=O)[C@@H](CCN)NC(=O)[C@H](CCCN)NC(=O)[C@H](CCN)NC(=O)[C@H](CC2CCCCC2)NC(=O)[C@H](Cc2c[nH]cn2)NC(=O)[C@H](Cc2c[nH]c3ccccc23)NC(=O)[C@@H]2CCCN2C(=O)[C@H]2CCCN2C(=O)[C@H](CO)NC(=O)[C@H](C)NC1=O` [compound 3, cyclo(-Trp-His-Cha-Dab-Orn-^DDab-Dab-Trp-Dab-Nva-Ala-Ser-^DPro-Pro-)] (cyclo(WH[Cha][Dab][Orn][dDab][Dab]W[Dab][Nva]AS[dP]P)): the “Hemolysis at 100 μg/ml” value worked out at 3%.

Turning to `C[C@@H]1NC(=O)[C@H](C(C)(C)C)NC(=O)[C@H](CCN)NC(=O)[C@H](Cc2c[nH]c3ccccc23)NC(=O)[C@H](CCN)NC(=O)[C@@H](CCN)NC(=O)[C@H](CCCN)NC(=O)[C@H](CCN)NC(=O)[C@H](Cc2ccc(O)cc2)NC(=O)[C@H](Cc2c[nH]cn2)NC(=O)[C@H](Cc2c[nH]c3ccccc23)NC(=O)[C@@H]2CCCN2C(=O)[C@H]2CCCN2C(=O)[C@H](CO)NC1=O` [compound 2, cyclo(-Trp-His-Tyr-Dab-Orn-^DDab-Dab-Trp-Dab-tBuGly-Ala-Ser-^DPro-Pro-)] (cyclo(WHY[Dab][Orn][dDab][Dab]W[Dab][Tle]AS[dP]P)), the “Hemolysis at 100 μg/ml” value is 1%.

On to `CC(C)(C)[C@@H]1NC(=O)[C@H](CCN)NC(=O)[C@H](Cc2c[nH]c3ccccc23)NC(=O)[C@H](CCN)NC(=O)[C@@H](CCN)NC(=O)[C@H](CCCN)NC(=O)[C@H](CCN)NC(=O)[C@H](CC2CCCCC2)NC(=O)[C@H](Cc2c[nH]c3ccccc23)NC(=O)[C@H](Cc2c[nH]c3ccccc23)NC(=O)[C@@H]2[C@@H](O)CCN2C(=O)[C@H]2CCCN2C(=O)[C@H](CO)NC(=O)[C@H](CO)NC1=O` [Ex. 15, cyclo(-Trp-Trp-Cha-Dab-Orn-^DDab-Dab-Trp-Dab-tBuGly-Ser-Ser-^DPro-Pro((3S)OH)—)] (cyclo(WW[Cha][Dab][Orn][dDab][Dab]W[Dab][Tle]SS[dP][Pro(3S-OH)])), for which the “Hemolysis at 100 μg/ml” value was 0%.

With `CC(C)C[C@@H]1NC(=O)[C@@H]2CCCN2C(=O)[C@H]2CCCN2C(=O)[C@H](CO)NC(=O)[C@H](CO)NC(=O)[C@H](CC2CCCCC2)NC(=O)[C@H](CCN)NC(=O)[C@H](Cc2c[nH]c3ccccc23)NC(=O)[C@H](CCN)NC(=O)[C@@H](CCN)NC(=O)[C@H](CCCCN)NC(=O)[C@H](CCN)NC(=O)[C@H](Cc2ccc(O)cc2)NC(=O)[C@H](Cc2c[nH]c3ccccc23)NC1=O` [compound 31, cyclo(-Leu-Trp-Tyr-Dab-Lys-^DDab-Dab-Trp-Dab-Cha-Ser-Ser-^DPro-Pro-)] (cyclo(LWY[Dab]K[dDab][Dab]W[Dab][Cha]SS[dP]P)), the “Hemolysis at 100 μg/ml” value came to 1%.

Take `CC(C)(C)[C@@H]1NC(=O)[C@H](CCN)NC(=O)[C@H](Cc2c[nH]c3ccccc23)NC(=O)[C@H](CCN)NC(=O)C2(CCNCC2)NC(=O)[C@H](CCCN)NC(=O)[C@H](CCN)NC(=O)[C@H](CC2CCCCC2)NC(=O)[C@H](Cc2c[nH]cn2)NC(=O)[C@H](Cc2c[nH]c3ccccc23)NC(=O)[C@@H]2[C@@H](O)CCN2C(=O)[C@H]2CCCN2C(=O)[C@H](CO)NC(=O)[C@H](CO)NC1=O` [Ex. 14, cyclo(-Trp-His-Cha-Dab-Orn-Pip-Dab-Trp-Dab-tBuGly-Ser-Ser-^DPro-Pro((3S)OH)—)] (cyclo(WH[Cha][Dab][Orn][Api][Dab]W[Dab][Tle]SS[dP][Pro(3S-OH)])): the “Hemolysis at 100 μg/ml” value worked out at 4%.

For the compound `CC(C)C[C@@H]1NC(=O)[C@@H]2CCCN2C(=O)[C@H]2CCCN2C(=O)[C@H](CO)NC(=O)[C@H](CO)NC(=O)[C@H](C2CCCCC2)NC(=O)[C@H](CCN)NC(=O)[C@H](Cc2c[nH]c3ccccc23)NC(=O)[C@H](CCN)NC(=O)[C@@H](CCN)NC(=O)[C@H](CCCN)NC(=O)[C@H](CCN)NC(=O)[C@H](C(C)(C)C)NC(=O)[C@H](Cc2c[nH]c3ccccc23)NC1=O` [compound 36, cyclo(-Leu-Trp-tBuGly-Dab-Orn-^DDab-Dab-Trp-Dab-Chg-Ser-Ser-^DPro-Pro-)] (cyclo(LW[Tle][Dab][Orn][dDab][Dab]W[Dab][Chg]SS[dP]P)), the “Hemolysis at 100 μg/ml” value was determined as 1%.

For `CC(C)C[C@@H]1NC(=O)[C@@H]2CCCN2C(=O)[C@H]2CCCN2C(=O)[C@H](CO)NC(=O)[C@H](C)NC(=O)[C@H](Cc2c[nH]c3ccccc23)NC(=O)[C@H](CCN)NC(=O)[C@H](Cc2c[nH]c3ccccc23)NC(=O)[C@H](CCN)NC(=O)[C@@H](CCN)NC(=O)[C@H](CCCN)NC(=O)[C@H](CCN)NC(=O)[C@H](Cc2ccc(O)cc2)NC(=O)[C@H](Cc2c[nH]cn2)NC1=O` [compound 29, cyclo(-Leu-His-Tyr-Dab-Orn-^DDab-Dab-Trp-Dab-Trp-Ala-Ser-^DPro-Pro-)] (cyclo(LHY[Dab][Orn][dDab][Dab]W[Dab]WAS[dP]P)), the “Hemolysis at 100 μg/ml” value is recorded as 0%.

In the case of `CC(C)C[C@@H]1NC(=O)[C@H](Cc2c[nH]c3ccccc23)NC(=O)[C@H](Cc2c[nH]c3ccccc23)NC(=O)[C@@H]2CCCN2C(=O)[C@H]2CCCN2C(=O)[C@H](C(C)C)NC(=O)[C@H](C)NC(=O)[C@H](C(C)C)NC(=O)[C@H](CCN)NC(=O)[C@H](Cc2c[nH]c3ccccc23)NC(=O)[C@H](CCN)NC(=O)[C@@H](CCN)NC(=O)[C@H](CCCN)NC(=O)[C@H](CCN)NC1=O` [compound 13, cyclo(-Trp-Trp-Leu-Dab-Orn-^DDab-Dab-Trp-Dab-Val-Ala-Val-^DPro-Pro-)] (cyclo(WWL[Dab][Orn][dDab][Dab]W[Dab]VAV[dP]P)), the “Hemolysis at 100 μg/ml” value is 2%.
